Measurements taken from ChEMBL document CHEMBL4190286, “Modulating the Serotonin Receptor Spectrum of Pulicatin Natural Products” (J Nat Prod, 2017).

The molecules below were run against 5-hydroxytryptamine receptor 1B (Homo sapiens, UniProt P28222) (assay: Displacement of [3H]-LSD from human 5-HT1B receptor expressed in baculovirus infected Sf9 cells).
Chain of 5-hydroxytryptamine receptor 1B (P28222 whole entry): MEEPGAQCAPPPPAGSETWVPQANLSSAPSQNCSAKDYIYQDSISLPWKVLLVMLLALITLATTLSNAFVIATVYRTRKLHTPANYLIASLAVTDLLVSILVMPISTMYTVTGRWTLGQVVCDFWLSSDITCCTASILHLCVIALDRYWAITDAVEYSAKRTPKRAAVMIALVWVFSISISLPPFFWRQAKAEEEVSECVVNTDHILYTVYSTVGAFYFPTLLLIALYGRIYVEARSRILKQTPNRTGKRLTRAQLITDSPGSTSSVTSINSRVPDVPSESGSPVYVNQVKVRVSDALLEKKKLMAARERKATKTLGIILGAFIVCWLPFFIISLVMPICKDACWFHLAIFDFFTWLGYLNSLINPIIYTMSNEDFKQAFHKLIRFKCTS
Molecule `NC(=O)c1csc(-c2ccccc2O)n1` [PULICATINS F] has a Ki greater than 10 µM.
With `OC[C@@H]1CSC(c2ccccc2O)=N1` [AERUGINE] the Ki was greater than 10 µM.
`C[C@@H]1SC(c2ccccc2O)=N[C@H]1[C@@H]1SC[C@](C)(C(=O)O)N1C` [WATASEMYCINS A] was tested, and the Ki was greater than 10 µM.
Molecule `O=Cc1csc(-c2ccccc2O)n1` has a Ki greater than 10 µM.
In the case of `NC(=O)C1CSC(c2ccccc2O)=N1` (racemic) [PULICATINS G], the Ki is reported as greater than 10 µM.
Work on `C[C@@H]1SC(c2ccccc2O)=N[C@H]1[C@H]1SC[C@](C)(C(=O)O)N1C` [WATASEMYCINS B] yielded a Ki greater than 10 µM.

These molecules were tested against 5-hydroxytryptamine receptor 2B (Homo sapiens, UniProt P41595) (assay: Displacement of [3H]-LSD from human 5-HT2B receptor expressed in baculovirus infected Sf9 cells).
Chain of 5-hydroxytryptamine receptor 2B (P41595 whole entry): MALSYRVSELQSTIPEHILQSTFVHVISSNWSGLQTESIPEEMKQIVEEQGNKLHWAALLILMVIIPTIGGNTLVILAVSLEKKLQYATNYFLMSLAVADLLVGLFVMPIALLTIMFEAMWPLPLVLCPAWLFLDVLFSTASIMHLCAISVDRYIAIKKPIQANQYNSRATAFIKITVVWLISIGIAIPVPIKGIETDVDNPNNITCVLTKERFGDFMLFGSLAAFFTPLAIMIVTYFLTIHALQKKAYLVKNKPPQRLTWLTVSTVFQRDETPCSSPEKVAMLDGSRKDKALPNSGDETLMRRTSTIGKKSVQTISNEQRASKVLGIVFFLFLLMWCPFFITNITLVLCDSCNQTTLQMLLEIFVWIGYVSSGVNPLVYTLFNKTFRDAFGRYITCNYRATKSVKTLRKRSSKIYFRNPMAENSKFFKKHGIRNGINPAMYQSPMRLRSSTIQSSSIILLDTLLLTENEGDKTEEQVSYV
Molecule `C[C@@H]1SC(c2ccccc2O)=N[C@H]1[C@@H]1SC[C@](C)(C(=O)O)N1C` [WATASEMYCINS A] has a Ki of 4.7 µM.
With `O=Cc1csc(-c2ccccc2O)n1` the Ki was 1.5 µM.
Molecule `C[C@@H]1SC(c2ccccc2O)=N[C@H]1[C@H]1SC[C@](C)(C(=O)O)N1C` [WATASEMYCINS B] has a Ki of 3.9 µM.

Each molecule was assayed against 5-hydroxytryptamine receptor 1D (Homo sapiens, UniProt P28221) (assay: Binding affinity to 5-HT1D receptor (unknown origin) by radioligand binding assay).
Chain of 5-hydroxytryptamine receptor 1D (P28221 whole entry): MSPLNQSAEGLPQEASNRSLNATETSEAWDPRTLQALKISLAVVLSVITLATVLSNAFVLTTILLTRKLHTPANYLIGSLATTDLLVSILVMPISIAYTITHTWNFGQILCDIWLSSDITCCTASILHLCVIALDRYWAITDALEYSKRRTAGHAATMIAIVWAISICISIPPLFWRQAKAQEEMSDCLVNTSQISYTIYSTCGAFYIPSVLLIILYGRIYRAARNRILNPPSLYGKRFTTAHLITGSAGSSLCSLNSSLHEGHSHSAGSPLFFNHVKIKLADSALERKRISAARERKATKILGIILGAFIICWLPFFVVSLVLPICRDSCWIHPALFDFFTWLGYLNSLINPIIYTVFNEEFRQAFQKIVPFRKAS
In the case of `NC(=O)c1csc(-c2ccccc2O)n1` [PULICATINS F], the Ki is reported as greater than 10 µM.
With `OC[C@@H]1CSC(c2ccccc2O)=N1` [AERUGINE] the Ki was greater than 10 µM.
In the case of `C[C@@H]1SC(c2ccccc2O)=N[C@H]1[C@@H]1SC[C@](C)(C(=O)O)N1C` [WATASEMYCINS A], the Ki is reported as greater than 10 µM.
`O=Cc1csc(-c2ccccc2O)n1` gave a Ki greater than 10 µM.
With `NC(=O)C1CSC(c2ccccc2O)=N1` (racemic) [PULICATINS G] the Ki was greater than 10 µM.
`C[C@@H]1SC(c2ccccc2O)=N[C@H]1[C@H]1SC[C@](C)(C(=O)O)N1C` [WATASEMYCINS B] was tested, and the Ki was greater than 10 µM.

What follows are molecules tested against 5-hydroxytryptamine receptor 1E (Homo sapiens, UniProt P28566) (assay: Binding affinity to 5-HT1E receptor (unknown origin) by radioligand binding assay).
Chain of 5-hydroxytryptamine receptor 1E (P28566 whole entry): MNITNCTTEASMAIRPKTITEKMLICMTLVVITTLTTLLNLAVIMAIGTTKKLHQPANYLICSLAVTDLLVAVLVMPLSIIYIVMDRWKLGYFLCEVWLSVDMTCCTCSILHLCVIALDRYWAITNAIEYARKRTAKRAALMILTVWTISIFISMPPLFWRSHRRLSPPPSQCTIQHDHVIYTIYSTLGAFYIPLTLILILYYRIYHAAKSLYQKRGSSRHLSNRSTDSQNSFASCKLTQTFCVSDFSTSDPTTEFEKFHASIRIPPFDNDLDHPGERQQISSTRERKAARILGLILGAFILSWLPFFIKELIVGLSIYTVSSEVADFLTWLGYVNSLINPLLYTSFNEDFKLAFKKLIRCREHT
For `NC(=O)c1csc(-c2ccccc2O)n1` [PULICATINS F], the Ki was greater than 10 µM.
For `OC[C@@H]1CSC(c2ccccc2O)=N1` [AERUGINE], the Ki was greater than 10 µM.
`C[C@@H]1SC(c2ccccc2O)=N[C@H]1[C@@H]1SC[C@](C)(C(=O)O)N1C` [WATASEMYCINS A] gave a Ki greater than 10 µM.
In the case of `O=Cc1csc(-c2ccccc2O)n1`, the Ki is reported as greater than 10 µM.
Molecule `NC(=O)C1CSC(c2ccccc2O)=N1` (racemic) [PULICATINS G] has a Ki greater than 10 µM.
Work on `C[C@@H]1SC(c2ccccc2O)=N[C@H]1[C@H]1SC[C@](C)(C(=O)O)N1C` [WATASEMYCINS B] yielded a Ki greater than 10 µM.

What follows are molecules tested against 5-hydroxytryptamine receptor 2A (Homo sapiens, UniProt P28223) (assay: Binding affinity to 5-HT2A receptor (unknown origin) by radioligand binding assay).
Chain of 5-hydroxytryptamine receptor 2A (P28223 whole entry): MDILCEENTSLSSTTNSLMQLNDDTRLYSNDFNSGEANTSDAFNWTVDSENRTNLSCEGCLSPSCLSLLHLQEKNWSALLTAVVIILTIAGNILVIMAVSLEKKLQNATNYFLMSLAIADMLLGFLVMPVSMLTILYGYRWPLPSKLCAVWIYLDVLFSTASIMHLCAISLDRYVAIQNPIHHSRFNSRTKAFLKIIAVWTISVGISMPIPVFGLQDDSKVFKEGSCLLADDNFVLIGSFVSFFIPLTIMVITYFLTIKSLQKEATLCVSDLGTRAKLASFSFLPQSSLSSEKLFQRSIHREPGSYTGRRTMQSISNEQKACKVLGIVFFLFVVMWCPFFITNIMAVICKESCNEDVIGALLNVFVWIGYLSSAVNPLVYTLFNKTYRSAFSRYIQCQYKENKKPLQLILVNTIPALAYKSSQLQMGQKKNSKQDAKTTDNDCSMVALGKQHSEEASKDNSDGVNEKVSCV
Work on `NC(=O)c1csc(-c2ccccc2O)n1` [PULICATINS F] yielded a Ki greater than 10 µM.
Molecule `OC[C@@H]1CSC(c2ccccc2O)=N1` [AERUGINE] has a Ki greater than 10 µM.
`C[C@@H]1SC(c2ccccc2O)=N[C@H]1[C@@H]1SC[C@](C)(C(=O)O)N1C` [WATASEMYCINS A] was tested, and the Ki was greater than 10 µM.
`O=Cc1csc(-c2ccccc2O)n1` showed a Ki greater than 10 µM.
In the case of `NC(=O)C1CSC(c2ccccc2O)=N1` (racemic) [PULICATINS G], the Ki is reported as greater than 10 µM.
Work on `C[C@@H]1SC(c2ccccc2O)=N[C@H]1[C@H]1SC[C@](C)(C(=O)O)N1C` [WATASEMYCINS B] yielded a Ki greater than 10 µM.

What follows are molecules tested against T1, 5-hydroxytryptamine receptor 2C (Homo sapiens, UniProt P28335) (assay: Binding affinity to 5-HT2C receptor (unknown origin) by radioligand binding assay).
T1 sequence (P28335 whole entry): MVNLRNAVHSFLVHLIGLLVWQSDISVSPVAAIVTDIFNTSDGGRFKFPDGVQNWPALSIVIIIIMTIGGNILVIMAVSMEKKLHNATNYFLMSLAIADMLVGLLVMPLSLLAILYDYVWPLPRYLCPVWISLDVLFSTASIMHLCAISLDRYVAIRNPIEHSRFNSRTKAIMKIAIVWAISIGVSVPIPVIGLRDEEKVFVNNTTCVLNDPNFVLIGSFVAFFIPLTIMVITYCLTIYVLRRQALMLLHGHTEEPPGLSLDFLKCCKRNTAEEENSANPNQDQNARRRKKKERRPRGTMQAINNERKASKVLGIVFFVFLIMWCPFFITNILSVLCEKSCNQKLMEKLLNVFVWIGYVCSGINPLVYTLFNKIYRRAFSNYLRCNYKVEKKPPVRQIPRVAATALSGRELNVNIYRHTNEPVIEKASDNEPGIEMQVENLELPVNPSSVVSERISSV
Molecule `NC(=O)c1csc(-c2ccccc2O)n1` [PULICATINS F] has a Ki greater than 10 µM.
`OC[C@@H]1CSC(c2ccccc2O)=N1` [AERUGINE] gave a Ki greater than 10 µM.
`C[C@@H]1SC(c2ccccc2O)=N[C@H]1[C@@H]1SC[C@](C)(C(=O)O)N1C` [WATASEMYCINS A] showed a Ki greater than 10 µM.
For `O=Cc1csc(-c2ccccc2O)n1`, the Ki was greater than 10 µM.
Work on `NC(=O)C1CSC(c2ccccc2O)=N1` (racemic) [PULICATINS G] yielded a Ki greater than 10 µM.
`C[C@@H]1SC(c2ccccc2O)=N[C@H]1[C@H]1SC[C@](C)(C(=O)O)N1C` [WATASEMYCINS B] showed a Ki greater than 10 µM.

These molecules were tested against T2, 5-hydroxytryptamine receptor 3A (Homo sapiens, UniProt P46098) (assay: Binding affinity to 5-HT3 receptor (unknown origin) by radioligand binding assay).
T2 sequence (P46098 whole entry): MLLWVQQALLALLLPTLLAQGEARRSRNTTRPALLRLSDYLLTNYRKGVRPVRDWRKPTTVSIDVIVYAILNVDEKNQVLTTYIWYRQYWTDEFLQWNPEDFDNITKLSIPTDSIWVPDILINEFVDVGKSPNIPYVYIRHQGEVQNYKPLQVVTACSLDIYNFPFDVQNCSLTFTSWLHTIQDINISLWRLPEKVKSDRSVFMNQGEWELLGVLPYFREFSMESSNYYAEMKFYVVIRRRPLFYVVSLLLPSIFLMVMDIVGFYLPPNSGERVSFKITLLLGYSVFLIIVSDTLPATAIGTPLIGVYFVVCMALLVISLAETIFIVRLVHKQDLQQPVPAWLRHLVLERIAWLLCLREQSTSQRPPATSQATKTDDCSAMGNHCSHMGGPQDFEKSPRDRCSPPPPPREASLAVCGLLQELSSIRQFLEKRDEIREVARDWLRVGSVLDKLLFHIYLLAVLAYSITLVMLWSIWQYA
Molecule `NC(=O)c1csc(-c2ccccc2O)n1` [PULICATINS F] has a Ki greater than 10 µM.
With `OC[C@@H]1CSC(c2ccccc2O)=N1` [AERUGINE] the Ki was greater than 10 µM.
For `C[C@@H]1SC(c2ccccc2O)=N[C@H]1[C@@H]1SC[C@](C)(C(=O)O)N1C` [WATASEMYCINS A], the Ki was greater than 10 µM.
`O=Cc1csc(-c2ccccc2O)n1` was tested, and the Ki was greater than 10 µM.
With `NC(=O)C1CSC(c2ccccc2O)=N1` (racemic) [PULICATINS G] the Ki was greater than 10 µM.
With `C[C@@H]1SC(c2ccccc2O)=N[C@H]1[C@H]1SC[C@](C)(C(=O)O)N1C` [WATASEMYCINS B] the Ki was greater than 10 µM.

Each molecule was assayed against 5-hydroxytryptamine receptor 5A (Homo sapiens, UniProt P47898) (assay: Binding affinity to 5-HT5A receptor (unknown origin) by radioligand binding assay).
Chain of 5-hydroxytryptamine receptor 5A (P47898 whole entry): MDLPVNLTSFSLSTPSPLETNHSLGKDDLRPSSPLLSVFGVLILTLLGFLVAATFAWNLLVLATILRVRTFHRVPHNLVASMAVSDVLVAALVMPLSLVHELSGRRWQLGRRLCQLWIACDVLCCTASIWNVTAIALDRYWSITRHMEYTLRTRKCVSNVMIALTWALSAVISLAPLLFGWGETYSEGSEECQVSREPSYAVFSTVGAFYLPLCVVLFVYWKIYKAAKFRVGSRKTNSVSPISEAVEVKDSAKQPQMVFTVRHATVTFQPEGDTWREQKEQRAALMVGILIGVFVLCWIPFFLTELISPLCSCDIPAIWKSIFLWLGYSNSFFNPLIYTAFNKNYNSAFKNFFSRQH
`NC(=O)c1csc(-c2ccccc2O)n1` [PULICATINS F] was tested, and the Ki was greater than 10 µM.
In the case of `OC[C@@H]1CSC(c2ccccc2O)=N1` [AERUGINE], the Ki is reported as greater than 10 µM.
In the case of `C[C@@H]1SC(c2ccccc2O)=N[C@H]1[C@@H]1SC[C@](C)(C(=O)O)N1C` [WATASEMYCINS A], the Ki is reported as greater than 10 µM.
`O=Cc1csc(-c2ccccc2O)n1` was tested, and the Ki was greater than 10 µM.
`NC(=O)C1CSC(c2ccccc2O)=N1` (racemic) [PULICATINS G] showed a Ki greater than 10 µM.
With `C[C@@H]1SC(c2ccccc2O)=N[C@H]1[C@H]1SC[C@](C)(C(=O)O)N1C` [WATASEMYCINS B] the Ki was greater than 10 µM.

The molecules below were run against 5-hydroxytryptamine receptor 6 (Homo sapiens, UniProt P50406) (assay: Binding affinity to 5-HT6 receptor (unknown origin) by radioligand binding assay).
Chain of 5-hydroxytryptamine receptor 6 (P50406 whole entry): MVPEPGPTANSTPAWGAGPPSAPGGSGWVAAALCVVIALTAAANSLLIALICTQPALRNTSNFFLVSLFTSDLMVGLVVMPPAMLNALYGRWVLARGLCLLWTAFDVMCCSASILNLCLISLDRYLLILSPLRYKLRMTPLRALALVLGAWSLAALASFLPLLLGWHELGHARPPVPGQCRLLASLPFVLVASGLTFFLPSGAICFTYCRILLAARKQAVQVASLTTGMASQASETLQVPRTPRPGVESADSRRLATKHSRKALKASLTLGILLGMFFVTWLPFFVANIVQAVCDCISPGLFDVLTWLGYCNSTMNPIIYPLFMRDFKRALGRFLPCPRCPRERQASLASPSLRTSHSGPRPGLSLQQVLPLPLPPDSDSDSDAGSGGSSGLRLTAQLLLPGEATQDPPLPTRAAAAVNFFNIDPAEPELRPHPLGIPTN
`NC(=O)c1csc(-c2ccccc2O)n1` [PULICATINS F] was tested, and the Ki was greater than 10 µM.
`OC[C@@H]1CSC(c2ccccc2O)=N1` [AERUGINE] was tested, and the Ki was greater than 10 µM.
`C[C@@H]1SC(c2ccccc2O)=N[C@H]1[C@@H]1SC[C@](C)(C(=O)O)N1C` [WATASEMYCINS A] gave a Ki greater than 10 µM.
Molecule `O=Cc1csc(-c2ccccc2O)n1` has a Ki greater than 10 µM.
`NC(=O)C1CSC(c2ccccc2O)=N1` (racemic) [PULICATINS G] gave a Ki greater than 10 µM.
`C[C@@H]1SC(c2ccccc2O)=N[C@H]1[C@H]1SC[C@](C)(C(=O)O)N1C` [WATASEMYCINS B] showed a Ki greater than 10 µM.

These molecules were tested against 5-hydroxytryptamine receptor 7 (Homo sapiens, UniProt P34969) (assay: Binding affinity to 5-HT7A receptor (unknown origin) by radioligand binding assay).
Chain of 5-hydroxytryptamine receptor 7 (P34969 whole entry): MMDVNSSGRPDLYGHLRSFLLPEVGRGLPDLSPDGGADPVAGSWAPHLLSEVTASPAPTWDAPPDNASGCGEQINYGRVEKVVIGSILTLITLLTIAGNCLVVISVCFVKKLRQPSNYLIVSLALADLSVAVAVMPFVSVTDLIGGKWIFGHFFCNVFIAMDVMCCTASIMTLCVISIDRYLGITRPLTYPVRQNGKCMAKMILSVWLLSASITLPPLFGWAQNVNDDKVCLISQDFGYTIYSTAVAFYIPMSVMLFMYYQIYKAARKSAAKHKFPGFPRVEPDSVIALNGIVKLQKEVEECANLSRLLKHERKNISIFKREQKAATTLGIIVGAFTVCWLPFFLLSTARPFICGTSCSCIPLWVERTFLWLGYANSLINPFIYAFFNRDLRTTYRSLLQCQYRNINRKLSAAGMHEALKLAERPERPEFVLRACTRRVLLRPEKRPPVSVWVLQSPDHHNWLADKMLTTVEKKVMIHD
In the case of `NC(=O)c1csc(-c2ccccc2O)n1` [PULICATINS F], the Ki is reported as greater than 10 µM.
Molecule `OC[C@@H]1CSC(c2ccccc2O)=N1` [AERUGINE] has a Ki greater than 10 µM.
With `C[C@@H]1SC(c2ccccc2O)=N[C@H]1[C@@H]1SC[C@](C)(C(=O)O)N1C` [WATASEMYCINS A] the Ki was greater than 10 µM.
`O=Cc1csc(-c2ccccc2O)n1` gave a Ki greater than 10 µM.
In the case of `NC(=O)C1CSC(c2ccccc2O)=N1` (racemic) [PULICATINS G], the Ki is reported as greater than 10 µM.
For `C[C@@H]1SC(c2ccccc2O)=N[C@H]1[C@H]1SC[C@](C)(C(=O)O)N1C` [WATASEMYCINS B], the Ki was greater than 10 µM.
